This passage reports melting point results from a melting point compilation (Tetko et al.; mined from patent text by program, amines drawn as free bases though some values may be those of a salt).

In the case of `CCOc1nc2cc(C)nn2c2ccncc12`, the melting point (commonly the temperature, or range, at which the solid turns liquid) turned out to be 156 °C. Under `O=c1oc2c(OCc3nnn[nH]3)c(O)c(OCc3nnn[nH]3)c(O)c2c2c1CCCC2` stands 283 to 286 °C.

Consider `O=c1[nH]c(N[N+](=O)[O-])ncc1Cc1ccco1`, for which the melting point is 183 to 184 °C. The same measure for `CCc1c(CC(=O)O)c(C)nc(C)c1Cc1nc2c(F)c(F)cc(F)c2s1`: 193 to 195 °C; for `CC1(C)C=C(c2ccccn2)c2ccc(Cl)c(Cl)c2OC1`: 112 °C. The same measure for `O=c1cc(NCCNCCOc2cccc3c2OCCO3)cn[nH]1`: 81 to 83 °C; for `CCCc1c(OCCCOc2ccc3c(=O)cc(-c4ccc(C(=O)O)cc4)oc3c2CCC)ccc(C(C)=O)c1O`: 226 to 228 °C; for `CN(CC1COc2ccccc2O1)S(N)(=O)=O` (centres undefined): 97 to 98 °C. The same measure for `O=C(NCc1ccccn1)c1[nH]c2ccc(Cl)cc2c1S(=O)(=O)c1ccccc1`: 250 to 251 °C. Turning to `CN(C)Cc1c[nH]c2ccc(CCS(=O)(=O)N(C)C)cc12`, the melting point lay in the range of 156 to 159 °C. The same measure for `O=c1c2ccc(O)cc2oc2c1oc1c3ccccc3ccc21`: above 300 °C; for `COc1ccc(-c2cc(=O)[nH]c(=O)[nH]2)cc1OC`: above 300 °C. Under `CCCCCCCNC(=O)Nc1ccccc1C(=O)NC1CCN(C(c2ccccc2)c2ccccc2)CC1` stands 182 °C; under `Cc1ccc(S(=O)(=O)OC[C@H]2CN(c3cccc(F)c3)C(=O)O2)cc1`, 114 to 115 °C. With `Cc1nc2c3c(ccc2n1C)[C@H]1OCCO[C@@H]1[C@@H](c1ccccc1)O3`, the melting point came to 307 °C. Under `CCc1ccc(NC2=CC3=NCN(C)C3=CC2(F)C(N)=O)c(F)c1` (centres undefined) stands 249 to 251 °C; under `CCCCCCCOc1cc(F)nc(N)n1`, 30 to 32 °C. Consider `O=C(CCCc1ccccc1)OCCCCCCCCCCCCNCC(O)c1ccccc1` (centres undefined), for which the melting point was 73 to 74 °C. Under `O=C(N1CCOCC1)n1nnc2cc(Cl)c(Cl)cc21` stands 145 °C.

`O=C(O)c1cc2cc(Cl)c(Cl)cc2nc1N[C@H](Cc1c[nH]c2ccccc12)C(=O)O` had a melting point above 250 °C. The same measure for `N#CSCC(Br)=C(Br)CBr`: 89 to 91 °C; for `CC(=O)Nc1ccc(NCCO)c([N+](=O)[O-])c1`: 186 °C; for `CNC(=O)C(Cc1ccc(OC)cc1)NC(=O)C(CC(C)C)C(CC(=O)OC(C)(C)C)SC(C)=O` (centres undefined): 147 to 151 °C. The same measure for `COc1cc2c(Nc3ccc(Cl)cc3F)ncnc2cc1OCCN(C)C(=O)OC(C)(C)C`: 194 to 196 °C; for `CCc1cccc(C)c1CNc1nc(OC)cc2c1nc(C)n2C`: 106 to 107 °C; for `Cn1cc(C2=CCN(CCCn3nnc4ccccc4c3=O)CC2)c2ccccc21`: 70 °C. Compound `CC(c1ccccn1)C(O)(Cn1cncn1)c1ccc(F)cc1F` (centres undefined) came in with a melting point of 146 to 148 °C. Regarding `CSc1ccc(-c2n[nH]c(=O)cc2-c2ccccc2)cc1`, the melting point is 186 °C. Compound `Cc1c(O)ccc2c(=O)c(-c3ccccc3O)coc12` showed a melting point of 196 to 198 °C. Under `CC(=O)c1cc(Br)c(OCCCN2CCC(c3noc4cc(F)ccc34)CC2)c(Br)c1` stands 102 to 103 °C; under `Nc1c(Br)cc(Br)n2nc(SCc3ccccc3)nc12`, 116 to 118 °C. In the case of `CCc1cc(CCN2C(=O)c3ccccc3C2=O)c(=O)[nH]c1C`, the melting point lay in the range of 232 to 233 °C.

With `CCc1cc(OCC(=O)O)c(C)cc1SCc1sc(-c2ccc(C(F)(F)F)cc2)nc1C`, the melting point lay within 169 to 171 °C. Take `O=C(O)CCCCCc1c(OCc2ccccc2)ccc2cncn12`: the melting point lay in the range of 139 to 141 °C. Under `O=C(O)CC[C@H](NCC(O)C(O)C(O)C(O)CO)C(=O)O` (some centres undefined) stands 94 °C; under `CCOC(=O)/C=C(C)/C(F)=C/C=C(C)/C=C/c1c(Cl)cc(OC)c(Cl)c1Cl`, 140 to 142 °C; under `COc1cc(OC)c(NC(=O)C(c2ccccc2)n2nnc(C(c3ccccc3)c3ccccc3)n2)c(OC)c1` (centres undefined), 114 to 117 °C.

In the case of `CCOC(=O)C(=CNc1ccccc1CO)C(=O)C(C)C`, the melting point lay within 72 to 84 °C. `CO[C@@]1(C)O[C@@H]2[C@H](OCc3ccccc3)OC[C@H](OC(=O)c3ccc([N+](=O)[O-])cc3)[C@H]2O[C@]1(C)OC` displayed a melting point of 58 to 59 °C. Compound `CSc1nc(C)n(CC(=O)O)c(=O)c1C#N` showed a melting point of 236 to 238 °C. The same measure for `CCOc1nn(Cc2ccc(OCn3nnc4ccccc43)cc2)cc1CCC(=O)O`: 136 to 137 °C.

Take `O=C(O)C1Oc2ccc(Cl)cc2C(C2CCCCC2)(C2CCCCC2)O1` (centres undefined): the melting point worked out at 208 °C.

Turning to `Fc1ccc2c(-c3ccc(OC[C@H]4CO4)cc3)noc2c1`, the melting point lay in the range of 132 to 133 °C. On to `COC1=NC(C)=C(C(=O)OC(C)C)C(c2cccc([N+](=O)[O-])c2)N1C(=O)N(C)Cc1ccccc1` (centres undefined), for which the melting point lay in the range of 145 to 146 °C. The same measure for `CC1CN(c2ccc([N+](=O)[O-])nc2)C1`: 141 to 143 °C. Under `O=C(c1cccs1)c1cnn2c(-c3cccc(OC4CCCC4)c3)ccnc12` stands 135 to 138 °C. The same measure for `CCCCC=Cc1ccc(Cc2c(C)[nH]c3ccc(C(=O)OC)cc23)c(Cl)c1`: 141 to 146 °C; for `CCOC(=O)C1CCC2(c3cc(OC)c(OC)cc3CCN2C(=O)CCN(C)C)C(C2c3cc(OC)c(OC)cc3CCN2CC)C1` (centres undefined): 154 to 156 °C. `CCOC(=O)c1csc(C2CCC2)n1` yielded a melting point of 48 to 50 °C.

`CC(c1ccc(F)cc1)N1CCN(c2cc(Oc3cccc4c(=O)[nH]ccc34)ncn2)CC1` (centres undefined) had a melting point of 249 °C. `C=CCOc1ccc(C#N)cc1`: the melting point is 41.6 °C. Under `CC(=O)C1C(C(=O)c2ccc(Br)cc2)CC2C3CCC4=CC(=O)C=CC4(C)C3(F)C(O)CC21C` (centres undefined) stands 285 to 286 °C; under `CN1CCN(c2ccc(Nc3ncc4c(n3)S/C(=C/c3ccc(F)cc3)C(=O)N4)cc2)CC1`, 172 to 175 °C. In the case of `CCCCCCCC/C=C\CCCCCCCC(=O)OCC1(CO)CCC(=O)O1` (centres undefined), the melting point lay within 38.5 to 39.5 °C. As for `O=S(=O)(O)NCc1ccncc1`, the melting point was 227 to 228 °C. Under `CNC(=N[N+](=O)[O-])NCc1ccc(Cl)nc1` stands 150 to 152 °C; under `CCCc1c(Cc2ccccc2)ccc2c(=O)cc(CCC(=O)O)oc12`, 160 to 161 °C. Under `N#Cc1ccc(NC(=O)N[C@@H]2C[C@@H]2c2c(F)cccc2Cl)nc1` (relative stereo) stands 189 °C; under `CCOC(=O)Cc1nnc(-c2ccccn2)[nH]c1=O`, 136 to 137 °C; under `COC(=O)CC1CC(c2ccc(C#N)cn2)=NO1` (centres undefined), 97 to 98 °C. For the compound `C=C(C)c1cc(O)cc2nc(-c3ccc(O)cc3)oc12`, the melting point is 225 to 228 °C. Under `NC(=O)OC[C@H]1NC(=O)[C@H]1NC(=O)OCc1ccccc1` stands 192 to 193 °C; under `O=C(O)Cc1cc(Cc2nc3c(F)c(F)cc(F)c3s2)cc(C(=O)O)c1`, 203 to 205 °C; under `O=C(O)C1C2CC3C(C2=O)C31` (centres undefined), 144 to 145 °C.
